Results published in patent US10610104B2, “Gastrointestinal tract detection methods, devices and systems” (priority 2016, dated 2020).

Experiments:
C. albicans = experiment: OD600 assay under simulated GI conditions, fungal contamination with or without anti-fungal recovery media; assay type: cell-based; details: TSB containing 2.5 mg/L Amphotericin B; C. albicans 1×10^3 CFU/mL; FaSSIF-V2; 4 hour incubation
Procedure: Experiments were performed in order to simulate an ingestible device that contains sterile media that is inoculated with a sample of fluid from the GI tract and incubated in transit. The experiments were designed to evaluate whether the assay could predict total bacterial counts over a dynamic range of 10^3 CFU/mL to 10^7 CFU/mL under a series of different conditions of pH, […], fungal strains, mucin concentrations. The samples were also incubated under conditions of shear forces and temperature that simulate conditions of an ingestible device in transit within the GI tract.
Gram-negative (Escherichia coli ATCC 25922) and Gram-positive (Staphylococcus epidermidis ATCC 12228) bacterial cultures were diluted in a standard growth media (TSB) over a dynamic range of 10^7 CFU/mL to 10^3 CFU/mL. The assay utilized […], under shear (110 rpm) and at body temperature (37° C.) over a 4 hour incubation period to simulate transit of an ingestible device within the GI tract. Experiments were performed under various conditions as indicated including: different pH levels (6.5, 7.0 and 7.8); […]; […] […] Experiments were conducted in quintuplicate. All testing was completed in simulated jejunal fluid (FaSSIF-V2; available from BioRelevant (London, UK) Cat: V2FA501 Lot: 02-1408-07, pH 6.5) using a 50 μL sample volume and a 4 hour incubation period. […]

cyclophilin = cyclophilin (Homo sapiens, UniProt P62937); details: voclosporin versus cyclosporine A; cited from earlier work
Sequence of cyclophilin (P62937 whole entry): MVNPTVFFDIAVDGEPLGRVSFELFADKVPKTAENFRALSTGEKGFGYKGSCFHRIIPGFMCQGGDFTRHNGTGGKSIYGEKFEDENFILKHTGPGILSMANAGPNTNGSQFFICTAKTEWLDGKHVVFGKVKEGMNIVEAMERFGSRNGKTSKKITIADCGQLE

[1] = test system: inflammatory bowel disease (IBD); details: numerous murine models; cited from earlier work
human IL-6 = human IL-6 (Homo sapiens, UniProt P05231); details: cited from earlier work
Sequence of human IL-6 (P05231 30-212): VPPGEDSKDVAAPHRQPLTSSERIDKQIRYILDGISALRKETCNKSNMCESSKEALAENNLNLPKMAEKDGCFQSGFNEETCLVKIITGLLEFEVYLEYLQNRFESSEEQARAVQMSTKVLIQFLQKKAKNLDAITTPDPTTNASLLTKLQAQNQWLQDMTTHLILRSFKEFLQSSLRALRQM

[2] = binding to lipid A, the common moiety of LPS; cited from earlier work

## C[C@@H]1[C@H](O)[C@@H](C)/C=C/C=C/C=C/C=C/C=C/C=C/C=C/[C@H](O[C@@H]2O[C@H](C)[C@@H](O)[C@H](N)[C@@H]2O)C[C@@H]2O[C@](O)(C[C@@H](O)C[C@@H](O)[C@H](O)CC[C@@H](O)C[C@@H](O)CC(=O)O[C@H]1C)C[C@H](O)[C@H]2C(=O)O [amphotericin B, Amphotericin B]
C. albicans
  background fungal growth (plate counts and optical density): reduced the background fungal growth

## C=C/C=C/C[C@@H](C)[C@@H](O)[C@H]1C(=O)N[C@@H](CC)C(=O)N(C)CC(=O)N(C)[C@@H](CC(C)C)C(=O)N[C@@H](C(C)C)C(=O)N(C)[C@@H](CC(C)C)C(=O)N[C@@H](C)C(=O)N[C@H](C)C(=O)N(C)[C@@H](CC(C)C)C(=O)N(C)[C@@H](CC(C)C)C(=O)N(C)[C@@H](C(C)C)C(=O)N1C [voclosporin]
cyclophilin
  binding affinity for cyclophilin: comparable

## L-glutamic acid polymer with L-alanine, L-lysine and L-tyrosine, acetate (salt) [Glatiramer acetate]
[1]
  effect on inflammation and pathological manifestations of IBD: reduce inflammation and ameliorate the pathological manifestations

## siltuximab: a chimeric, human-murine, immunoglobulin (Ig) Gκ mAb that binds and neutralizes human IL-6
Human IL-6
  binds and neutralizes human IL-6: high affinity and specificity

B1: Lipopolysaccharide Binding Protein (LBP): Lipopolysaccharide Binding Protein, binds with high affinity to lipid A, the common moiety of LPS (protein, UniProt P18428 26-481, looked up)
Lipopolysaccharide-binding …: ANPGLVARITDKGLQYAAQEGLLALQSELLRITLPDFTGDLRIPHVGRGRYEFHSLNIHSCELLHSALRPVPGQGLSLSISDSSIRVQGRWKVRKSFFKLQGSFDVSVKGISISVNLLLGSESSGRPTVTASSCSSDIADVEVDMSGDLGWLLNLFHNQIESKFQKVLESRICEMIQKSVSSDLQPYLQTLPVTTEIDSFADIDYSLVEAPRATAQMLEVMFKGEIFHRNHRSPVTLLAAVMSLPEEHNKMVYFAISDYVFNTASLVYHEEGYLNFSITDDMIPPDSNIRLTTKSFRPFVPRLARLYPNMNLELQGSVPSAPLLNFSPGNLSVDPYMEIDAFVLLPSSSKEPVFRLSVATNVSATLTFNTSKITGFLKPGKVKVELKESKVGLFNAELLEALLNYYILNTFYPKFNDKLAEGFPLPLLKRVQLYDLGLQIHKDFLFLGANVQYMRV
[2]
  Kd: 1 nM
